In experiment [1] the test system is hexokinase. As to conditions: Johnson et al., Biochemistry 21:2984 (1982); cited from earlier work.
The subject of experiment [2] is protein kinase. As to conditions: Johnson et al., Biochemistry 21:2984 (1982); cited from earlier work.
In experiment [3] the test system is A-431 plasma membrane extracts (EGF-mediated protein phosphorylation). Nature of the experiment: Protein phosphorylation in solubilized A-431 plasma membrane extracts, with or without EGF. It is filed as biochemical, human. As to conditions: 477 nmol/mg protein. The protocol:
The capacity of certain peptide halomethyl ketones to inhibit protein phosphorylation is illustrated by Examples 1-8, below, in which solubilized plasma membranes prepared from A-431 human epidermoid carcinoma cells were incubated with [γ-^32 P] ATP in the presence of EGF.
A-431 human epidermoid carcinoma cells were grown in Dulbecco's modified Eagle's medium containing 5% fetal calf serum. Plasma membranes were isolated by a method substantially similar to that described by Thom et al., Biochem J. 168:187 (1977), and kept at -70°. Solubilization of plasma membranes was performed substantially as described by Cohen et al., J. Biol. Chem. 255:4834 (1980). In this procedure, 7.5 mg/mL protein was solubilized with 5% Triton X-100 (octylphenol), 10% glycerol, and 20 mM Hepes buffer (N-2-hydroxyethylpiperazine-N^1 -2-ethanesulfonic acid), pH 7.4. This mixture was incubated for 20 minutes at about 23°, followed by centrifugation at 100,000 xg for 60 minutes.
(§1) Protein phosphorylation assays were conducted substantially as described by Carpenter et al., J. Biol. Chem. 254:4884 (1979). Each assay mixture contained, in a final volume of 70 μL: 20 mM Hepes, pH 7.4, 0.01% bovine serum albumin (BSA), 15-150 μg protein in Triton extract, 100 ng EGF, 1 mM MnCl2 and 10-20 μM [γ-^32 P] ATP (2-4 μCi). Peptide halomethyl ketones were added as solutions in ethanol; an equivalent volume of ethanol was added to controls. Assay mixtures were incubated at about 23° for ten minutes, with or without added EGF. Mixtures were then held at 0° for ten minutes before initiation of phosphorylation by addition of 15 μM γ-^32 P) ATP (2 μCi). Reactions were terminated after 3 minutes at 0° by applying an aliquot of the assay mixture to a Whatman 3MM filter paper (2×2 cm), which was then suspended in ice-cold 10% trichloroacetic acid containing 10 mM pyrophosphate. This suspension was gently shaken for a period of 1 hour, during which the trichloroacetic acid/pyrophosphate mixture was changed three times. Finally, the filter papers were dried and radioactivity measured by scintillation counting.

Experiment [4] addresses T1, p130^fps (UniProt P00530+P03323).
T1 construct: anti-gag serum and Staphylococcus protein A suspension (for FSV-transformed cells); viral gag-derived N-terminal portion (natural gag-fps fusion); expressed in transfected cells; immune complex with anti-gag serum and Staphylococcus protein A
Put plainly: Immune complex phosphorylation by p130fps immunoprecipitates of FSV-transformed cells. It is filed as biochemical, Fujinami sarcoma virus (FSV). As to conditions: for Activity (cpm), FSV: anti-gag immunoprecipitates, no inhibitor 27036; for Activity (cpm), Control: extracts immunoprecipitated with normal serum, no inhibitor 2624. The protocol:
In this experiment, Boc-LeuCH2 Br was tested as an inhibitor of pp60^src and p130^fps, the tyrosine-specific protein kinases encoded by the transforming genes of RSV and Fujinami sarcoma virus, respectively.
These viral gene products were partially purified by preparation of immune complexes substantially according to the technique described by Collett et al., Proc. Nat. Acad. Sci. USA 75:2021 (1978). In this procedure, immunoprecipitates are prepared by incubation of extracts of virus-transformed cells with tumor-bearing rabbit serum (TBR) and Staphylococcus protein A suspension (for RSV-transformed cells) or anti-gag serum and Staphylococcus protein A suspension (for FSV-transformed cells).
Assay mixtures contained, in a final volume of 70 μL, 100 μg of immune complex protein, 20 mM Hepes, pH 7.4, and 1 mM MnCl2. Phosphorylation was initiated by addition of 1 μM (4 μCi) [γ-^32 P] ATP. After 10 minutes at about 23°, reactions were terminated by pipetting 20 μL aliquots of assay mixture onto 2×2 cm squares of Whatman 3 MM filter paper, which were immediately suspended in 10% TCA/10 mM sodium pyrophosphate. […] Controls for the immunoprecipitation procedure were prepared by immunoprecipitating transformed cell extracts with normal serum. Values in parentheses represent specific phosphorylation induced by virus-transformed cells.
In a related experiment, the capacity of Boc-LeuCH2 Br to inhibit phosphorylation of casein by p130^fps was determined. These tests were conducted substantially as described above, except 1 mg/mL casein was added to assay mixtures as a substrate, and reactions were terminated by addition of 2.5 mM unlabeled ATP and immediate cooling to 0°. Phosphorylated casein was separated from immunoprecipitate suspensions by centrifugation at 3,000 xg for 3 minutes. The resulting pellets were resuspended in 70 μL of 10 mM Hepes, pH 7.5, and 20 μL aliquots were pipetted onto filter paper squares as previously described.
This experiment was conducted substantially according to the procedures described in Example 17, above. In Table 5, "FSV" refers to immunoprecipitates of FSV-transformed cell extracts prepared by addition of anti-gag serum; controls were extracts immunoprecipitated with normal serum.

Experiment [5] concerns the target T2, A-431 cell EGF receptor (Homo sapiens, UniProt P00533).
T2 construct: intact A-431 cell membranes were employed, rather than solubilized extracts; endogenous in cells; host or cells: A-431 human epidermoid carcinoma cells (plasma membranes)
Nature of the experiment: Protein phosphorylation of A-431 cell membrane EGF receptors (intact membranes, EGF present). It is filed as biochemical. Particulars: 600 nmoles/mg protein, intact A-431 membranes. The procedure:
as §1
Assays were conducted substantially as described above, except intact A-431 cell membranes were employed, rather than solubilized extracts, and assay mixtures contained 1 mM ouabain. In these Examples, reactions were permitted to proceed for 6 minutes. This technique is substantially similar to that disclosed by Navarro et al., Biochemistry, 21:6138 (1982).

The test system of experiment [6] is ASV-transformed cells. As to conditions: Weber, Cell 5:253 (1975); cited from earlier work.
In experiment [7] the test system is pp60^src. As to conditions: Richert et al., Cell 18:369 (1979); cited from earlier work.

T2 sequence (P00533 25-1210): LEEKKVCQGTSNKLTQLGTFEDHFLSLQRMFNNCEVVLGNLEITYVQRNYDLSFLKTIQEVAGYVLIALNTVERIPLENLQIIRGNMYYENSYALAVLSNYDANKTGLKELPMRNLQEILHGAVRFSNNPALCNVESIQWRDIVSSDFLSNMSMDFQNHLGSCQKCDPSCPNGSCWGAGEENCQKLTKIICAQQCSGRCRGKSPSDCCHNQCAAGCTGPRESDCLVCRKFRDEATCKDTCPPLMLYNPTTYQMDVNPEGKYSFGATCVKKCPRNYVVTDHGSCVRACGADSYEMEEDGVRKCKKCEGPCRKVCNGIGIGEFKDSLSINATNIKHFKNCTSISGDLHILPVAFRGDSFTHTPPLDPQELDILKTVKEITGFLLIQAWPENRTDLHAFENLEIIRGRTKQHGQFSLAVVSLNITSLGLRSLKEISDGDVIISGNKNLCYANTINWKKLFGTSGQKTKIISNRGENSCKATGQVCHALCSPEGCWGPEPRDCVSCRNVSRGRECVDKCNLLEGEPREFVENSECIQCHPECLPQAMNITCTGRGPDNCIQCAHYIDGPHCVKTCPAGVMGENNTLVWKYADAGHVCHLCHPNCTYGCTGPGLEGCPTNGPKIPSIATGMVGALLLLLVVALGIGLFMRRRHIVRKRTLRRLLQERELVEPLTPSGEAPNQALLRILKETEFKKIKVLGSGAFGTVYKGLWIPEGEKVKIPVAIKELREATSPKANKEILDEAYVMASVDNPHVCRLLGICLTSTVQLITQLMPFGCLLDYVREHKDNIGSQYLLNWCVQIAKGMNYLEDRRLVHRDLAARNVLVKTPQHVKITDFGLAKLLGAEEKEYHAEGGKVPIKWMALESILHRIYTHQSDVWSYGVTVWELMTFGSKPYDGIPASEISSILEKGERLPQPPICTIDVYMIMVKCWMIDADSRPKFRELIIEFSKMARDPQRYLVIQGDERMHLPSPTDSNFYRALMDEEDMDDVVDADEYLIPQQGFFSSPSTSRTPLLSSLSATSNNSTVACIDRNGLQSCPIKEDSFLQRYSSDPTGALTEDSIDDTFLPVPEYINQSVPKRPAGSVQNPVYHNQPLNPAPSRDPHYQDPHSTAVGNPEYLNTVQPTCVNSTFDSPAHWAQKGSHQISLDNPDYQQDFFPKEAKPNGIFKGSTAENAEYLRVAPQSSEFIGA

In the case of `CC(C)COC(=O)OC(C)C(=O)CCl` (stereo not drawn) [2-isobutyl 3-oxo-4-chloro-2-butyl carbonate], the “hexokinase activity of Ehrlich ascites tumor cells (in words)” value in experiment [1] was “inhibition”. For the same compound, the “protein kinase activity of Ehrlich ascites tumor cells (in words)” value in experiment [2] is “inhibition”.

Usually % inhibition stands for how much of the control response was suppressed. For the compound `CC(C)(C)OC(=O)N[C@@H](Cc1ccc(O)cc1)C(=O)CBr` [Boc-TyrCH2 Br], in experiment [3] (EGF added), the “% inhibition, EGF Added” value was determined as 78%. Moreover, in experiment [3] (EGF added, control 96.2), the “EGF Added (pmol 32P incorporated/min/mg protein)” value is on record as 20.6 pmol^32 P incorporated/min/mg. In addition, the “% inhibition, No EGF Added” value in experiment [3] (no EGF) came out at 83%. Further, the “No EGF Added (pmol 32P incorporated/min/mg protein)” value in experiment [3] (no EGF, control 21.6) is 3.6 pmol^32 P incorporated/min/mg. In addition, in experiment [4] (250 nmoles/mg protein), the “% inhibition” value is given as 84%; the “Activity (cpm), FSV” value is given as 4204 cpm; the “Activity (cpm), Control” value is recorded as 2132 cpm. In experiment [4] (500 nmoles/mg protein), the “% inhibition” value was found to be 87%; the “Activity (cpm), FSV” value is 3404 cpm; the “Activity (cpm), Control” value is given as 2140 cpm. Also, in experiment [5], the “% inhibition” value is listed as 49%.

On to `Cc1ccc(S(=O)(=O)N[C@@H](CCCCN)C(=O)CCl)cc1` [TLCK, N-α-tosyl-L-lysyl chloromethyl ketone], for which the “phenotype of ASV-transformed cells upon treatment (in words)” value in experiment [6] is recorded as “phenotypic reversion of ASV-transformed cells to normal”. The “in vivo protein phosphorylation activity associated with pp60src (in words)” value in experiment [7] is recorded as “observed to inhibit”.

The record behind these values is patent publication US4582821A, “Inhibition of cyclic nucleotide independent protein kinases” (E. I. Du Pont de Nemours and Company, priority 1983, dated 1986).
